The term inhibition denotes the change of the read-out against control, counted positive when it falls.

This is an account of results in ChEMBL document CHEMBL1938339, “Tripeptidic BACE1 inhibitors devised by in-silico conformational structure-based design” (Bioorg Med Chem Lett, 2012).

The target of this test is Beta-secretase 1 (Homo sapiens) (UniProt P56817). The test is described as follows: Inhibition of human recombinant BACE1 at 2 uM by FRET assay.
Beta-secretase 1 (Homo sapiens), sequence (P56817 whole entry): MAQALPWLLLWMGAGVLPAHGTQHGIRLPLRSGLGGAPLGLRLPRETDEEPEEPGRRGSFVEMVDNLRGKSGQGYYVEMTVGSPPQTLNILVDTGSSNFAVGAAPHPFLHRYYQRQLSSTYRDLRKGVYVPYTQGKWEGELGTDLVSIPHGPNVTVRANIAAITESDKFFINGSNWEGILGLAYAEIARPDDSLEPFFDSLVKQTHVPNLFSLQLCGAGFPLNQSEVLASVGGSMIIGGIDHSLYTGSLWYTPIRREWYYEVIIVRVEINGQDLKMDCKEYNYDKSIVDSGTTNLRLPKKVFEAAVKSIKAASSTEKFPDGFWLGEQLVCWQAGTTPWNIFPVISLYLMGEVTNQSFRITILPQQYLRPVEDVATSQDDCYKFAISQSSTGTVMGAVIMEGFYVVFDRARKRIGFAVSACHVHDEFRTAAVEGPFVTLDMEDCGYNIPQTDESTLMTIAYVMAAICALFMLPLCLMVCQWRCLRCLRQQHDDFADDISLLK

`CC(C)[C@H](NC(=O)[C@@H](N)CNC(=O)c1[nH]c(=O)[nH]c(=O)c1F)C(=O)N[C@@H](CC1CCCCC1)C(=O)NC(C)(C)CC1CCCCC1`: the inhibition was 88%.

`COc1ccc(CC(C)(C)NC(=O)[C@H](CC2CCCCC2)NC(=O)[C@@H](NC(=O)[C@@H](N)CNC(=O)c2[nH]c(=O)[nH]c(=O)c2F)C(C)C)cc1`: the inhibition came to 85%.

In the case of `CC(C)C[C@H](NC(=O)[C@@H](NC(=O)[C@@H](N)CNC(=O)c1[nH]c(=O)[nH]c(=O)c1F)C(C)C)C(=O)NC(C)(C)Cc1ccc(Br)cc1`, the inhibition was 85%.

Take `CC(C)[C@H](NC(=O)[C@@H](N)CNC(=O)c1nn[nH]n1)C(=O)N[C@@H](CC1CCCCC1)C(=O)NC(C)(C)Cc1ccccc1`: the inhibition is 76%.

With `CC(C)C[C@H](NC(=O)[C@@H](NC(=O)[C@@H](N)CNC(=O)c1cc(O)ccc1O)C(C)C)C(=O)NC(C)(C)Cc1cc(F)cc(F)c1`, the inhibition came to 59%.

With `CC(C)[C@H](NC(=O)[C@@H](N)CNC(=O)c1[nH]c(=O)[nH]c(=O)c1F)C(=O)N[C@@H](CC1CCCCC1)C(=O)NC(C)(C)Cc1cc(F)cc(F)c1`, the inhibition stood at 91%.

Regarding `CC(C)[C@H](NC(=O)[C@@H](N)CNC(=O)c1[nH]c(=O)[nH]c(=O)c1F)C(=O)N[C@@H](CC1CCCCC1)C(=O)NC(C)(C)Cc1ccc(Br)cc1`, the inhibition is 92%.

As for `COc1ccc(CC(C)(C)NC(=O)[C@H](CC(C)C)NC(=O)[C@@H](NC(=O)[C@@H](N)CNC(=O)c2cc(O)ccc2O)C(C)C)cc1`, the inhibition was 41%.

Take `CC(C)[C@H](NC(=O)[C@@H](N)CNC(=O)c1cc(O)ccc1O)C(=O)N[C@@H](CC1CCCCC1)C(=O)NC(C)(C)Cc1ccc(Br)cc1`: the inhibition came out at 81%.

With `CC(C)C[C@H](NC(=O)[C@@H](NC(=O)[C@@H](N)CNC(=O)c1[nH]c(=O)[nH]c(=O)c1F)C(C)C)C(=O)NC(C)(C)Cc1ccccc1`, the inhibition was 90%.

In the case of `CC(C)[C@H](NC(=O)[C@@H](N)CNC(=O)c1cc(O)ccc1O)C(=O)N[C@@H](CC1CCCCC1)C(=O)NC(C)(C)Cc1ccccc1`, the inhibition amounted to 80%.

On to `CC(C)[C@H](NC(=O)[C@@H](N)CNC(=O)c1[nH]c(=O)[nH]c(=O)c1F)C(=O)N[C@@H](CC1CCCCC1)C(=O)NC(C)(C)Cc1ccc([N+](=O)[O-])cc1`, for which the inhibition came out at 89%.

For the molecule `Cc1ccc(CC(C)(C)NC(=O)[C@H](CC2CCCCC2)NC(=O)[C@@H](NC(=O)[C@@H](N)CNC(=O)c2[nH]c(=O)[nH]c(=O)c2F)C(C)C)cc1`, the inhibition came out at 88%.

With `COc1cccc(CC(C)(C)NC(=O)[C@H](CC(C)C)NC(=O)[C@@H](NC(=O)[C@@H](N)CNC(=O)c2cc(O)ccc2O)C(C)C)c1`, the inhibition stood at 46%.

In the case of `CC(C)C[C@H](NC(=O)[C@@H](NC(=O)[C@@H](N)CNC(=O)c1nn[nH]n1)C(C)C)C(=O)NC(C)(C)Cc1ccccc1`, the inhibition came to 70%.

In the case of `CC(C)C[C@H](NC(=O)[C@@H](NC(=O)[C@@H](N)CNC(=O)c1[nH]c(=O)[nH]c(=O)c1F)C(C)C)C(=O)NC(C)(C)Cc1ccc(I)cc1I`, the inhibition was 91%.

`CC(C)C[C@H](NC(=O)[C@@H](NC(=O)[C@@H](N)CNC(=O)c1[nH]c(=O)[nH]c(=O)c1F)C(C)C)C(=O)N1CCCC1`: the inhibition is 88%.

In the case of `COc1cccc(CC(C)(C)NC(=O)[C@H](CC2CCCCC2)NC(=O)[C@@H](NC(=O)[C@@H](N)CNC(=O)c2[nH]c(=O)[nH]c(=O)c2F)C(C)C)c1`, the inhibition worked out at 77%.

For the molecule `Cc1ccccc1CC(C)(C)NC(=O)[C@H](CC1CCCCC1)NC(=O)[C@@H](NC(=O)[C@@H](N)CNC(=O)c1[nH]c(=O)[nH]c(=O)c1F)C(C)C`, the inhibition is 84%.

As to `COc1cccc(CC(C)(C)NC(=O)[C@H](CC2CCCCC2)NC(=O)[C@@H](NC(=O)[C@@H](N)CNC(=O)c2cc(O)ccc2O)C(C)C)c1`, the inhibition was found to be 49%.

Consider `CC(C)C[C@H](NC(=O)[C@@H](NC(=O)[C@@H](N)CNC(=O)c1[nH]c(=O)[nH]c(=O)c1F)C(C)C)C(=O)N1CCCCC1`, for which the inhibition amounted to 91%.

For `CC(C)[C@H](NC(=O)[C@@H](N)CCC(=O)O)C(=O)N[C@@H](CC1CCCCC1)C(=O)NC(C)(C)Cc1ccccc1`, the inhibition was found to be 16%.

As for `CC(C)C[C@H](NC(=O)[C@@H](NC(=O)[C@@H](N)CNC(=O)c1[nH]c(=O)[nH]c(=O)c1F)C(C)C)C(=O)NC(C)(C)Cc1ccc([N+](=O)[O-])cc1`, the inhibition was determined as 27%.

In the case of `COc1cccc(CC(C)(C)NC(=O)[C@H](CC(C)C)NC(=O)[C@@H](NC(=O)[C@@H](N)CNC(=O)c2[nH]c(=O)[nH]c(=O)c2F)C(C)C)c1`, the inhibition came to 84%.

As for `Cc1ccc(CC(C)(C)NC(=O)[C@H](CC(C)C)NC(=O)[C@@H](NC(=O)[C@@H](N)CNC(=O)c2[nH]c(=O)[nH]c(=O)c2F)C(C)C)cc1`, the inhibition worked out at 86%.

Take `CC(C)C[C@H](NC(=O)[C@@H](NC(=O)[C@@H](N)CNC(=O)c1[nH]c(=O)[nH]c(=O)c1F)C(C)C)C(=O)N1CCCCCC1`: the inhibition was found to be 89%.

For the molecule `Cc1ccccc1CC(C)(C)NC(=O)[C@H](CC1CCCCC1)NC(=O)[C@@H](NC(=O)[C@@H](N)CNC(=O)c1cc(O)ccc1O)C(C)C`, the inhibition was determined as 54%.

For the molecule `COc1ccc(CC(C)(C)NC(=O)[C@H](CC(C)C)NC(=O)[C@@H](NC(=O)[C@@H](N)CNC(=O)c2[nH]c(=O)[nH]c(=O)c2F)C(C)C)cc1`, the inhibition worked out at 83%.

`CC(C)C[C@H](NC(=O)[C@@H](NC(=O)[C@@H](N)CNC(=O)c1cc(O)ccc1O)C(C)C)C(=O)NC(C)(C)Cc1ccc(I)cc1I`: the inhibition was found to be 78%.

With `CC(C)[C@H](NC(=O)[C@@H](N)CNC(=O)c1[nH]c(=O)[nH]c(=O)c1F)C(=O)N[C@@H](CC1CCCCC1)C(=O)NC(C)(C)Cc1ccc(I)cc1I`, the inhibition worked out at 96%.

On to `CC(C)C[C@H](NC(=O)[C@@H](NC(=O)[C@@H](N)CNC(=O)c1[nH]c(=O)[nH]c(=O)c1F)C(C)C)C(=O)N1CCCCCCC1`, for which the inhibition was found to be 85%.

On to `Cc1ccccc1CC(C)(C)NC(=O)[C@H](CC(C)C)NC(=O)[C@@H](NC(=O)[C@@H](N)CNC(=O)c1[nH]c(=O)[nH]c(=O)c1F)C(C)C`, for which the inhibition was found to be 91%.

For the molecule `CC(C)[C@H](NC(=O)[C@@H](N)CNC(=O)c1cc(O)ccc1O)C(=O)N[C@@H](CC1CCCCC1)C(=O)NC(C)(C)Cc1ccc(I)cc1I`, the inhibition was determined as 88%.

Regarding `COc1ccc(CC(C)(C)NC(=O)[C@H](CC2CCCCC2)NC(=O)[C@@H](NC(=O)[C@@H](N)CNC(=O)c2cc(O)ccc2O)C(C)C)cc1`, the inhibition was found to be 45%.

`CC(C)C[C@H](NC(=O)[C@@H](NC(=O)[C@@H](N)CNC(=O)c1cc(O)ccc1O)C(C)C)C(=O)NC(C)(C)Cc1ccccc1`: the inhibition was found to be 77%.

For `CC(C)[C@H](NC(=O)[C@@H](N)CNC(=O)c1cc(O)ccc1O)C(=O)N[C@@H](CC1CCCCC1)C(=O)NC(C)(C)Cc1ccc([N+](=O)[O-])cc1`, the inhibition was 80%.

On to `CC(C)C[C@H](NC(=O)[C@@H](NC(=O)[C@@H](N)CCC(=O)O)C(C)C)C(=O)NC(C)(C)Cc1ccccc1`, for which the inhibition was less than 10%.

For the molecule `Cc1ccc(CC(C)(C)NC(=O)[C@H](CC(C)C)NC(=O)[C@@H](NC(=O)[C@@H](N)CNC(=O)c2cc(O)ccc2O)C(C)C)cc1`, the inhibition came to 51%.

With `CC(C)C[C@H](NC(=O)[C@@H](NC(=O)[C@@H](N)CNC(=O)c1[nH]c(=O)[nH]c(=O)c1F)C(C)C)C(=O)NC(C)(C)CC1CCCCC1`, the inhibition worked out at 91%.

With `CC(C)[C@H](NC(=O)[C@@H](N)CNC(=O)c1[nH]c(=O)[nH]c(=O)c1F)C(=O)N[C@@H](CC1CCCCC1)C(=O)NC(C)(C)Cc1ccccc1`, the inhibition came out at 92%.

Regarding `CC(C)C[C@H](NC(=O)[C@@H](NC(=O)[C@@H](N)CNC(=O)c1[nH]c(=O)[nH]c(=O)c1F)C(C)C)C(=O)N1CCCCCCCC1`, the inhibition came to 81%.

As for `CC(C)C[C@H](NC(=O)[C@@H](NC(=O)[C@@H](N)CNC(=O)c1cc(O)ccc1O)C(C)C)C(=O)NC(C)(C)Cc1ccc([N+](=O)[O-])cc1`, the inhibition amounted to 45%.

Consider `CC(C)C[C@H](NC(=O)[C@@H](NC(=O)[C@@H](N)CNC(=O)c1[nH]c(=O)[nH]c(=O)c1F)C(C)C)C(=O)NC(C)(C)Cc1cc(F)cc(F)c1`, for which the inhibition worked out at 86%.
